Source: patent US20030055065A1, “Tricyclic amide and urea compounds useful for inhibition of G-protein function and for treatment of proliferative diseases” (priority 1993, published 2003)
Values joined by “and” are separate entries in the source; they are usually repeats but may differ in a detail not shown here. Equal values may be shown once. Read-outs that look alike come from different tables or passages of the source.

Legend:
[1] = system: Ras-CVLS processing in COS monkey kidney cells; assay: COS cell assay: Ras-CVLS processing (Western blot); type: cell-based; conditions: COS cells, read-out: Inhibition of Ras Processing IC50
Procedure: 2. […] Effect of farnesyl protein transferase inhibitors on Ras processing and on disordered cell growth induced by transforming Ras. COS monkey kidney cells were transfected by electroporation with the plasmid pSV-SPORT (Gibco/BRL) containing a cDNA insert encoding either Ras-CVLS or Ras-CVLL, leading to transient overexpression of a Ras substrate for either farnesyl protein transferase or geranylgeranyl protein transferase I, respectively (see above). […] After 24 hours, media was removed and fresh media containing the appropriate drugs was re-added. 48 hours after electroporation cells were examined under the microscope to monitor disordered cell growth induced by transforming Ras. Cells expressing transforming Ras become more rounded and refractile and overgrow the monolayer, reminiscent of the transformed phenotype. […] Cells were lysed by homogenization and cell debris was removed by centrifugation at 2000×g for 10 min. Cellular protein was precipitated by addition of ice-cold trichloroacetic acid and redissolved in 100 μl of SDS-electrophoresis sample buffer. […] Proteins resolved on the gels were electroblotted onto nitrocellulose membranes for immunodetection. […] E., et al., (1982), Monoclonal antibodies to the p21 products of the transforming gene of Harvey murine sarcome virus and of the cellular ras gene family, J. Virol. 43: 294-304), in PBS containing 1% fetal calf serum for one hour at room temperature. After washing, membranes were incubated for one hour at room temperature with a 1:5000 dilution of secondary antibody, rabbit anti-rat IgG conjugated to horseradish peroxidase, in PBS containing 1% fetal calf serum.

[2] = system: T24-BAG4 human bladder carcinoma cells expressing an activated H-ras gene; assay: Cell Mat Assay: tumor cell colony inhibition (tIC50); type: cell-based; conditions: inhibition of tumor cell growth
Procedure: (§1) Compound-induced colony inhibition was assayed by addition of serial dilutions of compound directly to the growth medium 24 h after tumor cell planting, and incubating cells for an additional 14 d to allow colony formation. Assays were terminated by rinsing monolayers twice with phosphate-buffered saline (PBS), fixing the monolayers with a 1% glutaraldehyde solution in PBS, then visualizing tumor cells by staining with X-Gal (Price, J., et al., Lineage analysis in the vertebrate nervous system by retrovirus-mediated gene transfer, Proc. Natl. Acad. Sci.84, 156-160(1987)). […] Both IC50 values were obtained by determining the density of tumor cells and mat cells by visual inspection and enumeration of cells per colony and the number of colonies under the microscope.

[3] = target: T1, farnesyl protein transferase (FPT), partially purified from rat brain (Rattus norvegicus, UniProt Q02293+Q04631); assay: Inhibition of farnesyl protein transferase (transfer of [3H]farnesyl to Ras-CVLS); type: biochemical
T1 construct: were partially purified from rat brain by ammonium sulfate fractionation followed by Q-Sepharose
T1 sequence (Q02293 whole entry, one chain of several): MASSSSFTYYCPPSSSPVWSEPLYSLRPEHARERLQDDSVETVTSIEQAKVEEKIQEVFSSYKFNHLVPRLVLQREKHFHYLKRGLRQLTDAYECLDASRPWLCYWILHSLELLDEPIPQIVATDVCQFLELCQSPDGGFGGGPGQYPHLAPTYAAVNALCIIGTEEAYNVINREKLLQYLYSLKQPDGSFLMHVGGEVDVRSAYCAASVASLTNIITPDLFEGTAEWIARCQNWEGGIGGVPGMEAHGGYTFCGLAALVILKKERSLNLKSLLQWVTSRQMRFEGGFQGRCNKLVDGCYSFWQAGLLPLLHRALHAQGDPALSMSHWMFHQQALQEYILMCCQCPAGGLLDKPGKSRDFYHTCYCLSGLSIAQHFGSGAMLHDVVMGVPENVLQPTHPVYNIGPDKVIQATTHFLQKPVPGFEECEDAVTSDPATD
In short: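 Transfer of [3H]farnesyl onto E. coli-expressed, His6-tagged Ras-CVLS was measured after 30 min at room temperature. Radiolabelled Ras was TCA-precipitated on ice and filter-harvested, and inhibition was expressed as percent of DMSO control.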

[4] = system: Normal human HEPM fibroblasts; assay: Cell Mat Assay: density of mat cells (mIC50); type: cell-based
Procedure: as §1

[5] = Ras-CVLS farnesylation, partially purified rat brain FPT, read-out: FPT IC50
[6] = enzyme inhibition, read-out: FPT IC50

## O=C(Nc1cccnc1)N1CCN(C2c3ccc(Cl)cc3CCc3cccnc32)CC1 (stereo not shown) [187 (6.7)]
[1]; Primates, COS
  IC50: 4.8 µM
[2]; Homo sapiens
  IC50: 37 µM
[2]
  IC50: 25 µM
[3]; [5]
  IC50: 1.34 µM
[4]; Homo sapiens, Fibroblast
  IC50: > 50 µM

## O=C(Cc1cc[n+]([O-])cc1)N1CCC(=C2c3ccc(Cl)cc3CCc3cc(Br)cnc32)CC1 [Example 400-L]
[1]
  IC50: 0.65 µM
[1]; Primates, COS
  IC50: 0.6 µM
[2]; Homo sapiens
  IC50: < 1.6 µM
[2]
  IC50: < 0.8 µM
[3]; [5]
  IC50: 0.095 µM and 0.09 µM
[3]; [6]
  IC50: 0.095 µM and 0.09 µM
[4]
  IC50: > 12.5 µM
[4]; Homo sapiens, Fibroblast
  IC50: > 25 µM

## CCc1cc2c(cc1Cl)C=Cc1cccnc1C2C1CCN(C(=O)Cc2ccncc2)CC1 (stereo not shown) [Example 417]
[1]; Primates, COS
  IC50: 4 µM
[2]; Homo sapiens
  IC50: 10 µM
[3]; [6]
  IC50: 1.16 µM
[4]; Homo sapiens, Fibroblast
  IC50: 18 µM

## O=C(Cc1cc[n+]([O-])cc1)N1CCN([C@H]2c3ccc(Cl)cc3CCc3cccnc32)CC1 [Example 425-E]
[1]; Primates, COS
  IC50: 5 µM
[2]; Homo sapiens
  IC50: 1.6 µM
[3]; [6]
  IC50: 0.49 µM
[4]; Homo sapiens, Fibroblast
  IC50: > 25 µM

## CC(C)(C(=O)N1CCN(C2c3ccc(Cl)cc3CCc3cc(Br)cnc32)CC1)c1ccc[n+]([O-])c1 (stereo not shown) [Example 352]
[1]; Primates, COS
  IC50: 2.2 µM
[2]; Homo sapiens
  IC50: 1.6 µM
[3]; [5]
  IC50: 0.74 µM and 0.38 µM
[4]; Homo sapiens, Fibroblast
  IC50: > 25 µM

## COc1cnc2c(c1)CCc1cc(Cl)ccc1C2=C1CCN(C(=O)Cc2cccnc2)CC1 [Example 239, 4-(8-Chloro-3-methoxy-5,6-dihydro-11H-benzo[5,6]cyclohepta[1,2-b]pyridin-11-ylidene)-1-[(3-pyridinyl]acetyl]-piperidine]
[1]; Primates, COS
  IC50: 4.6 µM
[2]; Homo sapiens
  IC50: 37 µM
[3]; [5]
  IC50: 1.75 µM
[4]; Homo sapiens, Fibroblast
  IC50: > 50 µM

## O=C(Cc1ccncc1)N1CCC(C2c3ccc(Cl)cc3CCc3cccnc32)CC1 (stereo not shown) [Example 82, 4-(8-chloro-6,11-dihydro-5H-benzo-[5,6]cyclohepta[1,2-b]pyridin-11-yl)-1-[(4-pyridinyl)acetyl]-piperidine]
[1]; Primates, COS
  IC50: 1.2 µM
[2]; Homo sapiens
  IC50: 3.1 µM
[3]; [5]
  IC50: 0.16 µM and 0.36 µM
[4]; Homo sapiens, Fibroblast
  IC50: 40 µM

## O=C1Cc2cccnc2C(=C2CCN(C(=O)Cc3ccncc3)CC2)c2ccc(Cl)cc21 [Example 285]
[1]; listed as 285 (5.153)
  IC50: 10.1 µM
[1]; Primates, COS
  IC50: 5.2 µM
[2]; Homo sapiens
  IC50: 12.5 µM
[3]; [5]
  IC50: 0.76 µM
[4]; Homo sapiens, Fibroblast
  IC50: > 50 µM

## O=C(Cc1ccncc1)N1CCC(=C2c3ccc(Cl)cc3C(O)Cc3cccnc32)CC1 (stereo not shown) [Example 286]
[1]; Primates, COS
  IC50: 8.3 µM
[2]; Homo sapiens
  IC50: 25 µM
[3]; [5]
  IC50: 1.5 µM
[4]; Homo sapiens, Fibroblast
  IC50: > 50 µM

## O=C1Cc2cccnc2C(=C2CCN(C(=O)Cc3cccnc3)CC2)c2ccc(Cl)cc21 [Example 283]
[1]; Primates, COS
  IC50: 5.6 µM
[2]; Homo sapiens
  IC50: 10 µM
[3]; [5]
  IC50: 0.48 µM and 0.55 µM
[4]; Homo sapiens, Fibroblast
  IC50: > 50 µM

## CC(=O)N1CCC(CC(=O)N2CCN([C@H]3c4ccc(Cl)cc4CCc4cccnc43)CC2)CC1 [225 (5.99)]
[1]; Primates, COS
  IC50: 6.2 µM
[2]; Homo sapiens
  IC50: 12.5 µM
[3]; [5]
  IC50: 1.6 µM
[4]; Homo sapiens, Fibroblast
  IC50: > 50 µM

## O=C(Nc1ccccn1)N1CCC(=C2c3ccc(Cl)cc3CCc3cccnc32)CC1 [Example 294]
[1]
  IC50: 2.8 µM
[1]; Primates, COS
  IC50: 5.2 µM
[2]; Homo sapiens
  IC50: 18 µM
[3]; [5]
  IC50: 2.11 µM
[4]; Homo sapiens, Fibroblast
  IC50: > 50 µM

## O=C(Cc1cccnc1)N1CCC(C2c3ccc(Cl)cc3C=Cc3cccnc32)CC1 (stereo not shown) [Example 266]
[1]; listed as 266 (5.138)
  IC50: 0.89 µM
[1]; Primates, COS
  IC50: 0.77 µM
[2]; Homo sapiens
  IC50: 3.1 µM
[3]; FPT IC50, Ras-CVLS farnesylation, partially purified rat brain FPT
  IC50: 0.46 µM
[4]; Homo sapiens, Fibroblast
  IC50: 6.25 µM

## CC(C)(C(=O)N1CCC(=C2c3ccc(Cl)cc3CCc3cc(Br)cnc32)CC1)c1cc[n+]([O-])cc1 [Example 411-D]
[1]; Primates, COS
  IC50: 1.6 µM
[2]; Homo sapiens
  IC50: 8 µM
[3]; [6]
  IC50: 0.62 µM
[4]; Homo sapiens, Fibroblast
  IC50: > 25 µM

## O=C(Cc1ccncc1)N1CCC(C2c3ccc(Cl)cc3C=Cc3cc([N+](=O)[O-])cnc32)CC1 (stereo not shown) [Example 411-B]
[1]; Primates, COS
  IC50: 1.8 µM
[2]; Homo sapiens
  IC50: 6.25 µM
[3]; [6]
  IC50: 0.32 µM
[4]; Homo sapiens, Fibroblast
  IC50: > 25 µM

## CC(C)(C(=O)N1CCC(=C2c3ccc(Cl)cc3CCc3cc(Br)cnc32)CC1)c1ccc[n+]([O-])c1 [Example 411-A]
[1]; Primates, COS
  IC50: 0.7 µM
[2]; Homo sapiens
  IC50: 1.6 µM
[3]; [6]
  IC50: 0.59 µM
[4]; Homo sapiens, Fibroblast
  IC50: > 25 µM

## O=C(Nc1cccnc1)N1CCC(C2c3ccccc3CCc3cccnc32)CC1 (stereo not shown) [Example 365]
[1]
  IC50: 3.1 µM
[2]
  IC50: 6.25 µM
[3]; [5]
  IC50: 5 µM
[4]
  IC50: > 50 µM
